Measured values: patent publication US7276339B2 (H. Lundbeck A/S, priority 1998, dated 2007)
Like-named read-outs stand apart in the source and are kept apart here. Non-standard residues stand in square brackets, D forms with d. Residues, ends and D or L forms follow the SMILES beside them. No end group written: not given here. *: point of attachment. NMeF = CN[C@@H](Cc1ccccc1)C(=O)O; X1 = O=C(Cc1ccc(O)cc1)*

Columns and labels:
rat NPFF1 receptor = rat NPFF1 receptor (Rattus norvegicus, UniProt Q9EP86); assay: [125I]D-Tyr-NPFF radioligand binding, membranes of COS-7 cells transiently expressing cloned rat NPFF1; design: expressed in transfected cells; host or cells: COS-7 (transient)
Experimental: Transfected cells from culture flasks are scraped into 5 ml of 20 mM Tris-HCl, 5 mM EDTA, pH 7.5, and lysed by sonication. The cell lysates are centrifuged at 1000 rpm for 5 min. at 4° C., and the supernatant is centrifuged at 30,000×g for 20 min. at 4° C. […] Optimal membrane suspension dilutions, defined as the protein concentration required to bind less than 10% of the added radioligand, […], unlabeled compounds, and binding buffer to a final volume of 250 μl. In equilibrium saturation binding assays membrane preparations are incubated in the presence of increasing concentrations of [^3H]-labeled compound. […] Competition assay: 50 pM radioligand, 10-12 points. Binding reaction mixtures are incubated for 2 hr at 25° C., and the reaction stopped by filtration through a double layer of GF filters treated with 0.1% polyethyleneimine, using a cell harvester. Wash buffer: 50 mM Tris-HCl, 0.1% BSA. Radioactivity may be measured by scintillation counting and data are analyzed by a computerized non-linear regression program. Non-specific binding is defined as the amount of radioactivity remaining after incubation of membrane protein in the presence of 1 μM final concentration […]. Protein concentration may be measured by the Bradford method using Bio-Rad Reagent, with bovine serum albumin as a standard.
Cos-7 cells transiently expressing the gene encoding the novel rat NPFF1 receptor were used for pharmacological evaluation.

[1] = target: rat spinal cord membrane receptor; assay: [125I]D-Tyr-NPFF radioligand binding, rat spinal cord membranes; conditions: competition of [125I]D-Tyr-NPFF binding; * = differs from NPFF1
Text: The binding profile of rat NPFF1 was compared to that of rat spinal cord membranes. […] (See * Table 2).

NPFF1 (SNORF2) = target: T1, NPFF1 (SNORF2) (Rattus norvegicus, UniProt Q9EP86); assay: Voltage-clamp electrophysiology, Xenopus oocytes injected with SNORF2 (NPFF1) and chimeric Gαq/z RNA; assay type: cell-based; conditions: for inward current response: 1 μM, oocytes with SNORF2 + Gαq/z, holding potential −80 mV; for activation of oocytes injected with SNORF2 synthetic RNA: concentration not given
T1 construct: linearized plasmids or PCR products containing the complete coding region of the genes; expressed in transfected cells; host or cells: Xenopus laevis oocytes injected with synthetic RNA (T7 transcripts)
Experimental: Oocytes were harvested from Xenopus laevis and injected with mRNA transcripts as previously described (Quick and Lester, 1994; Smith et al., 1997). […] Three to eight hours prior to recording, oocytes were injected with 500 pg Gαq/z mRNA in order to observe coupling to Ca^++ activated Cl^− currents. Dual electrode voltage clamp (Axon Instruments Inc.) was performed using 3 M KCl-filled glass microelectrodes having resistances of 1-2 Mohm. Unless otherwise specified, oocytes were voltage clamped at a holding potential of −80 mV. During recordings, oocytes were bathed in continuously flowing (1-3 ml/min) medium containing 96 mM NaCl, 2 mM KCl, 1.8 mM CaCl2, 1 mM MgCl2, and 5 mM HEPES, pH 7.5 (ND96). Drugs were applied either by local perfusion from a […] glass capillary tube fixed at a distance of 0.5 mm from the oocyte, or by switching from a series of gravity fed perfusion lines.
Heterologous expression of GPCRs in Xenopus oocytes has been widely used to determine the identity of signaling pathways activated by agonist stimulation (Gundersen et al., 1983; Takahashi et al., 1987). Activation of the phospholipase C (PLC) pathway is assayed by applying test compound in ND96 solution to oocytes previously injected with mRNA for the mammalian receptor and observing inward currents at a holding potential of −80 mV. The appearance of currents that reverse at −25 mV and display other properties of the Ca^++-activated Cl^− (chloride) channel is indicative of mammalian receptor-activation of PLC and release of IP3 and intracellular Ca^++.

[2] = competition of [125I]D-Tyr-NPFF binding, COS-7 membranes
[3] = competition of [125I]D-Tyr-NPFF binding, COS-7 membranes, read-out: pKi for cloned rat NPFF1 receptor binding in COS-7 cells, MEAN (converted)

Sequence of rat NPFF1 receptor (Q9EP86 whole entry): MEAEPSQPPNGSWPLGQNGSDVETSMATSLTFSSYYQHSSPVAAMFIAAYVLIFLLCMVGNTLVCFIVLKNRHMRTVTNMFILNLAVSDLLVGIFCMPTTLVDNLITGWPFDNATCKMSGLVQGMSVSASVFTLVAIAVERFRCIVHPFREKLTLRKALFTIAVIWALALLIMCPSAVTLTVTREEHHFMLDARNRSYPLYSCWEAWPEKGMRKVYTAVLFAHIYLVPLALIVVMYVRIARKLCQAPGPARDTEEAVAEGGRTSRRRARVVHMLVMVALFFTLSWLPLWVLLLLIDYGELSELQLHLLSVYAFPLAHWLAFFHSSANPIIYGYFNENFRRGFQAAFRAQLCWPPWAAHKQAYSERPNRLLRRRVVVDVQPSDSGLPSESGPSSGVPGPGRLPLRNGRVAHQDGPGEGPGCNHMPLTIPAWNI
T1 sequence (Q9EP86 whole entry): as above

Row | Molecule | pKi for rat spinal cord membrane receptor binding, MEAN [1] | Ki (rat NPFF1 receptor; [3]) | other results
1 | TEPGLEEVGEIEQKQLQ [nocistatin] | – | – | pKi for cloned rat NPFF1 receptor binding in COS-7 cells, MEAN (rat NPFF1 receptor; [2]): ≤ 5
2 | YLFQPQRF-NH2 [Y8Fa] | *9.189 | – | inward current response (NPFF1 (SNORF2)): displayed activity
3 | C[C@@H]1CN([C@H]2CC[C@](C#N)(c3ccc(F)cc3)CC2)CC[C@]1(C(=O)O)c1ccccc1 [levocabastine] | – | ≥ 10 µM | –
4 | N=C(N)NCCC[C@H](NC(=O)[C@H](Cc1ccccc1)NC(=O)[C@@H](N)Cc1ccccc1)C(=O)N[C@@H](Cc1ccccc1)C(N)=O [FFRF] (H-FFRF-NH2; N-terminus and C-terminus assumed) | 8.98 | – | pKi for cloned rat NPFF1 receptor binding in COS-7 cells, MEAN (rat NPFF1 receptor; [2]): 8
5 | CC(C)C[C@@H](NC(=O)[C@H](N)Cc1ccc(O)cc1)C(=O)N[C@@H](Cc1ccccc1)C(=O)N[C@@H](CCC(N)=O)C(=O)N1CCC[C@H]1C(=O)N[C@@H](CCC(N)=O)C(=O)N[C@@H](CCCNC(=N)N)C(=O)N[C@@H](Cc1ccccc1)C(N)=O [(2D)Y8Fa] (H-[dY][dL]FQPQRF-NH2; N-terminus assumed) | *9.212 | – | pKi for cloned rat NPFF1 receptor binding in COS-7 cells, MEAN (rat NPFF1 receptor; [2]): 8.33
6 | AGEGLSSPYWSLAAPQRF-NH2 [[Y^9]A18Fa] | *8.502 | – | inward current response (NPFF1 (SNORF2)): displayed activity
7 | CC(C)C[C@H](NC(=O)[C@H](Cc1ccccc1)NC(=O)Cc1ccc(O)cc1)C(=O)N[C@@H](Cc1ccccc1)C(=O)N[C@@H](CCC(N)=O)C(=O)N1CCC[C@H]1C(=O)N[C@@H](CCC(N)=O)C(=O)N[C@@H](CCCNC(=N)N)C(N)=O [desamino-nor-Y8Ra] (X1-FLFQPQR-NH2) | 7.51 | – | pKi for cloned rat NPFF1 receptor binding in COS-7 cells, MEAN (rat NPFF1 receptor; [2]): 7.27
8 | H-KHQYLRF-NH2 [AF-2, H-Lys-His-Gln-Tyr-Leu-Arg-Phe-NH2] | *7.965 | 0.0948 µM | –
9 | CCNC(C)Cc1cccc(C(F)(F)F)c1 (stereo not drawn) [fenfluramine] | – | ≥ 10 µM | –
10 | CNCCCN1c2ccccc2CCc2ccccc21 [desipramine] | – | ≥ 10 µM | –
11 | melanin concentrating hormone | – | – | activation of oocytes injected with SNORF2 synthetic RNA (NPFF1 (SNORF2)): failed to activate
12 | N=C(N)NCCC[C@H](N)C(=O)O [L-arginine] | – | ≥ 10 µM | –
13 | H-PDVDHVFLRF-NH2 [SchistFLRF] | 6.39 | – | –
14 | CC(C)C[C@@H](NC(=O)[C@H](N)Cc1ccc(O)cc1)C(=O)N[C@H](Cc1ccccc1)C(=O)N[C@@H](CCC(N)=O)C(=O)N1CCC[C@H]1C(=O)N[C@@H](CCC(N)=O)C(=O)N[C@@H](CCCNC(=N)N)C(=O)N[C@@H](Cc1ccccc1)C(N)=O [(3D)Y8Fa] (H-[dY][dL][dF]QPQRF-NH2; N-terminus assumed) | 9.123 | – | –
15 | PDKDFIVNPSDLVLDNKAALRDYLRQINEYFAIIGRPRF-NH2 (C-terminus assumed) [Neuropeptide F] | *8.100 | – | pKi for cloned rat NPFF1 receptor binding in COS-7 cells, MEAN (rat NPFF1 receptor; [2]): 6.11
16 | orexin B | – | – | activation of oocytes injected with SNORF2 synthetic RNA (NPFF1 (SNORF2)): failed to activate
17 | COc1ccc2c(c1)[nH]c1c(C)nccc12 [harmine] | – | – | Ki (rat NPFF1 receptor): ≥ 10 µM
18 | NCCc1ccc(O)c(O)c1 [dopamine] | – | ≥ 10 µM | –
19 | C[C@@H](O)[C@H](NC(=O)[C@@H](N)Cc1ccccc1)C(=O)N[C@@H](CCCNC(=N)N)C(=O)N[C@@H](Cc1ccccc1)C(N)=O [FTRF] (H-FTRF-NH2; N-terminus and C-terminus assumed) | 8.16 | – | pKi for cloned rat NPFF1 receptor binding in COS-7 cells, MEAN (rat NPFF1 receptor; [2]): 7.87
20 | H-KNQFIRF-NH2 [AF-1, H2N-Lys-Asn-Gln-Phe-Ile-Arg-Phe-NH2] | *7.563 | 0.232 µM | –
21 | N=C(N)NCCC[C@@H](N)C(=O)O [D-arginine] | – | ≥ 10 µM | –
22 | CC(C)C[C@@H](NC(=O)[C@H](N)Cc1ccc(O)cc1)C(=O)N(C)[C@@H](Cc1ccccc1)C(=O)N[C@@H](CCC(N)=O)C(=O)N1CCC[C@H]1C(=O)N[C@@H](CCC(N)=O)C(=O)N[C@@H](CCCNC(=N)N)C(=O)N[C@@H](Cc1ccccc1)C(N)=O [(2DME)Y8Fa] (H-[dY][dL][NMeF]QPQRF-NH2; N-terminus assumed) | 9.57 | – | pKi for cloned rat NPFF1 receptor binding in COS-7 cells, MEAN (rat NPFF1 receptor; [2]): 9.2
23 | Dynorphin A1-13 | *5.700 | – | –
24 | Cc1nc2sccn2c(=O)c1CCN1CCC(=C(c2ccc(F)cc2)c2ccc(F)cc2)CC1 [ritanserine] | – | ≥ 10 µM | –
25 | NCCc1c[nH]c2ccc(O)cc12 [5-HT] | – | – | activation of oocytes injected with SNORF2 synthetic RNA (NPFF1 (SNORF2)): failed to activate
26 | CC(C)C[C@H](NC(=O)[C@H](CCCCN)NC(=O)[C@H](CCCN=C(N)N)NC(=O)[C@H](C)NC(=O)[C@H](CO)NC(=O)[C@H](CCCCN)NC(=O)[C@H](CCCN=C(N)N)NC(=O)[C@H](C)NC(=O)CNC(=O)[C@@H](NC(=O)[C@H](Cc1ccccc1)NC(=O)CNC(=O)CNC(=O)[C@@H](N)Cc1ccccc1)[C@@H](C)O)C(=O)N[C@@H](C)C(=O)N[C@@H](CC(N)=O)C(=O)N[C@@H](CCC(N)=O)C(=O)O [nociceptin] | – | – | Ki (rat NPFF1 receptor): ≥ 10 µM
27 | CSCC[C@H](NC(=O)[C@@H]1CCCN1)C(=O)N[C@@H](CCCNC(=N)N)C(=O)N[C@@H](Cc1ccccc1)C(N)=O [PMRFa] (H-PMRF-NH2; N-terminus assumed) | 9.37 | – | –
28 | CSCC[C@H](NC(=O)[C@H](Cc1ccc(OS(=O)(=O)O)cc1)NC(=O)[C@@H](N)CC(=O)O)C(=O)NCC(=O)N[C@@H](Cc1c[nH]c2ccccc12)C(=O)N[C@@H](CCSC)C(=O)N[C@@H](CC(=O)O)C(=O)N[C@@H](Cc1ccccc1)C(N)=O [CCK8] | – | – | pKi for cloned rat NPFF1 receptor binding in COS-7 cells, MEAN (rat NPFF1 receptor; [2]): ≤ 5
29 | CCK: unrelated neuropeptide (peptide, UniProt P06307 21-115, looked up, Cholecystokinin, unrelated neuropeptide) Cholecystokinin: QPVPPADPAGSGLQRAEEAPRRQLRVSQRTDGESRAHLGALLARYIQQARKAPSGRMSIVKNLQNLDPSHRISDRDYMGWMDFGRRSAEEYEYPS | – | – | activation of oocytes injected with SNORF2 synthetic RNA (NPFF1 (SNORF2)): failed to activate
